Assay results reported in US20100099561A1, “HETEROBICYCLIC ALKYLTHIO-BRIDGED ISOXAZOLINES” (E.I. DU PONT DE NEMOURS AND COMPANY, priority 2008, published 2010).

Experiments:
Type in all cases: in vivo
[1] = test system: barnyardgrass (Echinochloa crus-galli); experiment: Test A preemergence, barnyardgrass; settings: 0 to 100 scale (0 no effect, 100 complete control)
Excerpt: (§1) Seeds of barnyardgrass (Echinochloa crus-galli), large crabgrass (Digitaria sanguinalis), giant foxtail (Setaria faberi), morningglory (Ipomoea spp.), pigweed (Amaranthus retroflexus), velvetleaf (Abutilon theophrasti), wheat (Triticum aestivum), and corn (Zea mays) were planted into a blend of loam soil and sand and treated preemergence with a directed soil spray using test chemicals formulated in a non-phytotoxic solvent mixture which included a surfactant. At the same time these species were also treated with postemergence applications of test compounds formulated in the same manner. Plants ranged in height from two to ten cm and were in the one- to two-leaf stage for the postemergence treatment. Treated plants and untreated controls were maintained in a greenhouse for approximately ten days, after which time all treated plants were compared to untreated controls and visually evaluated for injury. Plant response ratings, summarized in Table A, are based on a 0 to 100 scale where 0 is no effect and 100 is complete control. A dash (-) response means no test result.

[2] = test system: large crabgrass (Digitaria sanguinalis); experiment: Test A postemergence, large crabgrass; settings: 0 to 100 scale (0 no effect, 100 complete control)
Excerpt: as §1

[3] = test system: corn (Zea mays); experiment: Test A preemergence, corn; settings: 0 to 100 scale (0 no effect, 100 complete control)
Excerpt: as §1

[4] = test system: velvetleaf (Abutilon theophrasti); experiment: Test A postemergence, velvetleaf; settings: 0 to 100 scale (0 no effect, 100 complete control)
Excerpt: as §1

[5] = test system: pigweed (Amaranthus retroflexus); experiment: Test A preemergence, pigweed; settings: 0 to 100 scale (0 no effect, 100 complete control)
Excerpt: as §1

[6] = test system: barnyardgrass (Echinochloa crus-galli); experiment: Test A postemergence, barnyardgrass; settings: 0 to 100 scale (0 no effect, 100 complete control)
Excerpt: as §1

[7] = test system: wheat (Triticum aestivum); experiment: Test A preemergence, wheat; settings: 0 to 100 scale (0 no effect, 100 complete control)
Excerpt: as §1

[8] = test system: wheat (Triticum aestivum); experiment: Test A postemergence, wheat; settings: 0 to 100 scale (0 no effect, 100 complete control)
Excerpt: as §1

[9] = test system: giant foxtail (Setaria faberi); experiment: Test A preemergence, giant foxtail; settings: 0 to 100 scale (0 no effect, 100 complete control)
Excerpt: as §1

[10] = test system: umbrella sedge (Cyperus difformis); experiment: Test B flooded paddy test, umbrella sedge; settings: Flood, scale 0 to 100
Excerpt: (§2) Plant species in the flooded paddy test consisted of rice (Oryza sativa), umbrella sedge (Cyperus difformis), ducksalad (Heteranthera limosa) and barnyardgrass (Echinochloa crus-galli) grown to the 2-leaf stage for testing. At time of treatment, test pots were flooded to 3 cm above the soil surface, treated by application of test compounds directly to the paddy water, and then maintained at that water depth for the duration of the test. Treated plants and controls were maintained in a greenhouse for 13 to 15 days, after which time all species were compared to controls and visually evaluated. Plant response ratings, summarized in Table B, are based on a scale of 0 to 100 where 0 is no effect and 100 is complete control. A dash (-) response means no test result.

[11] = test system: morningglory (Ipomoea spp.); experiment: Test A postemergence, morningglory; settings: 0 to 100 scale (0 no effect, 100 complete control)
Excerpt: as §1

[12] = test system: corn (Zea mays); experiment: Test A postemergence, corn; settings: 0 to 100 scale (0 no effect, 100 complete control)
Excerpt: as §1

[13] = test system: ducksalad (Heteranthera limosa); experiment: Test B flooded paddy test, ducksalad; settings: Flood, scale 0 to 100
Excerpt: as §2

[14] = test system: barnyardgrass (Echinochloa crus-galli); experiment: Test B flooded paddy test, barnyardgrass; settings: Flood
Excerpt: as §2

[15] = test system: large crabgrass (Digitaria sanguinalis); experiment: Test A preemergence, large crabgrass; settings: 0 to 100 scale (0 no effect, 100 complete control)
Excerpt: as §1

[16] = test system: pigweed (Amaranthus retroflexus); experiment: Test A postemergence, pigweed; settings: 0 to 100 scale (0 no effect, 100 complete control)
Excerpt: as §1

[17] = test system: velvetleaf (Abutilon theophrasti); experiment: Test A preemergence, velvetleaf; settings: 0 to 100 scale (0 no effect, 100 complete control)
Excerpt: as §1

[18] = test system: rice (Oryza sativa); experiment: Test B flooded paddy test, rice; settings: Flood, scale 0 to 100
Excerpt: as §2

[19] = test system: giant foxtail (Setaria faberi); experiment: Test A postemergence, giant foxtail; settings: 0 to 100 scale (0 no effect, 100 complete control)
Excerpt: as §1

[20] = test system: morningglory (Ipomoea spp.); experiment: Test A preemergence, morningglory; settings: 0 to 100 scale (0 no effect, 100 complete control)
Excerpt: as §1

[21] = 250 g ai/ha, scale 0 to 100 (0 no effect, 100 complete control)

## CC1(C)CC([S+]([O-])Cc2c(C(F)(F)C(F)(F)F)nc3n(c2=O)CCC3)=NO1 (stereo not shown) [Compound 27]
[1]; 125 g ai/ha
  Plant response rating, Barnyardgrass: 50
[1]; 500 g ai/ha
  Plant response rating, Barnyardgrass: 90
[2]; 125 g ai/ha
  Plant response rating, Crabgrass, Large: 40
[2]; 500 g ai/ha
  Plant response rating, Crabgrass, Large: 80
[3]; 125 g ai/ha
  Plant response rating, Corn: 0
[3]; 500 g ai/ha
  Plant response rating, Corn: 0
[4]; 125 g ai/ha
  Plant response rating, Velvetleaf: 0
[4]; 500 g ai/ha
  Plant response rating, Velvetleaf: 40
[5]; 125 g ai/ha
  Plant response rating, Pigweed: 0
[5]; 500 g ai/ha
  Plant response rating, Pigweed: 0
[6]; 125 g ai/ha
  Plant response rating, Barnyardgrass: 40
[6]; 500 g ai/ha
  Plant response rating, Barnyardgrass: 70
[7]; 125 g ai/ha
  Plant response rating, Wheat: 0
[7]; 500 g ai/ha
  Plant response rating, Wheat: 50
[8]; 125 g ai/ha
  Plant response rating, Wheat: 0
[8]; 500 g ai/ha
  Plant response rating, Wheat: 50
[9]; 125 g ai/ha
  Plant response rating, Foxtail, Giant: 60
[9]; 500 g ai/ha
  Plant response rating, Foxtail, Giant: 90
[10]; 31 g ai/ha
  Plant response rating, Sedge, Umbrella: 0
[10]; 62 g ai/ha
  Plant response rating, Sedge, Umbrella: 0
[10]; 125 g ai/ha
  Plant response rating, Sedge, Umbrella: 0
[10]; 250 g ai/ha
  Plant response rating, Sedge, Umbrella: 0
[11]; 125 g ai/ha
  Plant response rating, Morningglory: 0
[11]; 500 g ai/ha
  Plant response rating, Morningglory: 40
[12]; 125 g ai/ha
  Plant response rating, Corn: 0
[12]; 500 g ai/ha
  Plant response rating, Corn: 0
[13]; 31 g ai/ha
  Plant response rating, Ducksalad: 0
[13]; 62 g ai/ha
  Plant response rating, Ducksalad: 0
[13]; 125 g ai/ha
  Plant response rating, Ducksalad: 0
[13]; 250 g ai/ha
  Plant response rating, Ducksalad: 0
[14]; 31 g ai/ha, scale 0 to 100
  Plant response rating, Barnyardgrass: 0
[14]; 62 g ai/ha, scale 0 to 100
  Plant response rating, Barnyardgrass: 0
[14]; 125 g ai/ha, scale 0 to 100
  Plant response rating, Barnyardgrass: 0
[14]; [21]
  Plant response rating, Barnyardgrass: 0
[15]; 125 g ai/ha
  Plant response rating, Crabgrass, Large: 70
[15]; 500 g ai/ha
  Plant response rating, Crabgrass, Large: 90
[16]; 125 g ai/ha
  Plant response rating, Pigweed: 0
[16]; 500 g ai/ha
  Plant response rating, Pigweed: 30
[17]; 125 g ai/ha
  Plant response rating, Velvetleaf: 0
[17]; 500 g ai/ha
  Plant response rating, Velvetleaf: 60
[18]; 31 g ai/ha
  Plant response rating, Rice: 0
[18]; 62 g ai/ha
  Plant response rating, Rice: 0
[18]; 125 g ai/ha
  Plant response rating, Rice: 0
[18]; 250 g ai/ha
  Plant response rating, Rice: 0
[19]; 125 g ai/ha
  Plant response rating, Foxtail, Giant: 40
[19]; 500 g ai/ha
  Plant response rating, Foxtail, Giant: 70
[20]; 125 g ai/ha
  Plant response rating, Morningglory: 0
[20]; 500 g ai/ha
  Plant response rating, Morningglory: 0

## CC1(C)CC([S+]([O-])Cc2c(C(F)(F)F)nc3n(c2=O)CCCO3)=NO1 (stereo not shown) [Compound 3]
[1]; 125 g ai/ha
  Plant response rating, Barnyardgrass: 30
[1]; 500 g ai/ha
  Plant response rating, Barnyardgrass: 60
[2]; 125 g ai/ha
  Plant response rating, Crabgrass, Large: 20
[2]; 500 g ai/ha
  Plant response rating, Crabgrass, Large: 50
[3]; 125 g ai/ha
  Plant response rating, Corn: 0
[3]; 500 g ai/ha
  Plant response rating, Corn: 0
[4]; 125 g ai/ha
  Plant response rating, Velvetleaf: 20
[4]; 500 g ai/ha
  Plant response rating, Velvetleaf: 50
[5]; 125 g ai/ha
  Plant response rating, Pigweed: 40
[5]; 500 g ai/ha
  Plant response rating, Pigweed: 60
[6]; 125 g ai/ha
  Plant response rating, Barnyardgrass: 0
[6]; 500 g ai/ha
  Plant response rating, Barnyardgrass: 50
[7]; 125 g ai/ha
  Plant response rating, Wheat: 0
[7]; 500 g ai/ha
  Plant response rating, Wheat: 0
[8]; 125 g ai/ha
  Plant response rating, Wheat: 0
[8]; 500 g ai/ha
  Plant response rating, Wheat: 0
[9]; 125 g ai/ha
  Plant response rating, Foxtail, Giant: 40
[9]; 500 g ai/ha
  Plant response rating, Foxtail, Giant: 70
[10]; 62 g ai/ha
  Plant response rating, Sedge, Umbrella: 0
[10]; 250 g ai/ha
  Plant response rating, Sedge, Umbrella: 0
[11]; 125 g ai/ha
  Plant response rating, Morningglory: 0
[11]; 500 g ai/ha
  Plant response rating, Morningglory: 0
[12]; 125 g ai/ha
  Plant response rating, Corn: 0
[12]; 500 g ai/ha
  Plant response rating, Corn: 0
[13]; 62 g ai/ha
  Plant response rating, Ducksalad: 0
[13]; 250 g ai/ha
  Plant response rating, Ducksalad: 40
[14]; 62 g ai/ha, scale 0 to 100
  Plant response rating, Barnyardgrass: 0
[14]; [21]
  Plant response rating, Barnyardgrass: 0
[15]; 125 g ai/ha
  Plant response rating, Crabgrass, Large: 50
[15]; 500 g ai/ha
  Plant response rating, Crabgrass, Large: 70
[16]; 125 g ai/ha
  Plant response rating, Pigweed: 0
[16]; 500 g ai/ha
  Plant response rating, Pigweed: 30
[17]; 125 g ai/ha
  Plant response rating, Velvetleaf: 0
[17]; 500 g ai/ha
  Plant response rating, Velvetleaf: 0
[18]; 62 g ai/ha
  Plant response rating, Rice: 0
[18]; 250 g ai/ha
  Plant response rating, Rice: 0
[19]; 125 g ai/ha
  Plant response rating, Foxtail, Giant: 0
[19]; 500 g ai/ha
  Plant response rating, Foxtail, Giant: 50
[20]; 125 g ai/ha
  Plant response rating, Morningglory: 0
[20]; 500 g ai/ha
  Plant response rating, Morningglory: 0
